The values below come from US20240173419A1, “CDK2 DEGRADERS AND USES THEREOF” (Kymera Therapeutics, Inc., priority 2022, published 2024).

Usually DC50 stands for the concentration giving 50% degradation. Broadly, the Dmax is the greatest extent of degradation seen.

Bounds are passed on as bounds.

This experiment has as its target T1, CDK2 (Homo sapiens, UniProt P24941).
T1 construct: endogenous in cells; host or cells: MKN1 cells
Briefly: CDK2 degradation in MKN1 cells (AlphaLISA). It is filed as cell-based. Particulars: for CDK2 degradation 14 h: Average Dmax % / DC50: 14 h incubation; for DC50: read-out: CDK2 degradation 14 h: Mean external-Abs DC50; for Dmax: MKN-1, 14 h incubation. Summed up:
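DC50 from four-parameter logistic fit of AlphaLISA CDK2 signal, corrected for no-cell wells. Lysates came from MKN1 cells, 2e4 per well, exposed 14 h at 37° C to compound at 0.001 nM-10 μM (1:5 series, 11 doses) in 0.1% DMSO.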
For orientation: Alpha assays give light when donor and acceptor beads are brought close together.

On to `Cc1cc(S(=O)(=O)NC2CCC(CN3CCN(c4c(C)cc(C5CCC(=O)NC5=O)cc4F)CC3)CC2)ccc1Nc1ncc(C(F)(F)F)c(N2CCCC(C)(O)C2)n1` (centres unmarked) [I-1146], for which the “CDK2 degradation 14 h: Average Dmax %” value is “A (A (>75% o))” and the 50% degradation concentration (DC50) is less than 0.1 µM.
On to `CC1(O)CCCN(c2nc(Nc3ccc(S(=O)(=O)NC4CCC(CN5CCN(c6ccc(C7CCC(=O)NC7=O)cc6F)CC5)CC4)cc3OC(F)F)ncc2C(F)(F)F)C1` (centres unmarked) [I-1111], for which the “CDK2 degradation 14 h: Average Dmax %” value is recorded as “A (A (>75% o))” and the half-maximal degradation concentration (DC50) lay in the range of 0.1 to 0.5 µM.
On to `Cc1cc(S(=O)(=O)C2CC3(CCN(CCOC4CN(c5cccc6c5n(C)c(=O)n6C5CCC(=O)NC5=O)C4)CC3)C2)ccc1Nc1ncc(C(F)(F)F)c(N2CCCC(C)(O)C2)n1` (centres unmarked) [I-854], for which the “CDK2 degradation 14 h: Average Dmax %” value is “B (B (>50% -75%))” and the DC50 lay in the range of 0.1 to 0.5 µM.
In the case of `Cc1cc(S(=O)(=O)NCCOC2CCC(CN3CCC(c4ccc5c(c4F)n(C)c(=O)n5C4CCC(=O)NC4=O)CC3)CC2)ccc1Nc1ncc(C(F)(F)F)c(C2CCC(C)(O)CC2)n1` (centres unmarked) [I-515], the “CDK2 degradation 14 h: Average Dmax %” value is “A (A (>75% o))” and the DC50 is less than 0.1 µM.
In the case of `CC1(O)CCCN(c2nc(Nc3ccc(S(=O)(=O)NC4CCC(CN5CCN(c6ccc(C7CCC(=O)NC7=O)c(F)c6)CC5)CC4)cc3C(F)(F)F)ncc2C(F)(F)F)C1` (centres unmarked) [I-1114], the “CDK2 degradation 14 h: Average Dmax %” value is recorded as “B (B (>50% -75%))” and the half-maximal degradation concentration (DC50) fell in the range of 0.1 to 0.5 µM.
Regarding `C[C@]1(O)CCC[C@H]1n1c(=O)c(C(F)F)cc2cnc(NC3CCN(C(=O)COCCOCCOCCOCCNc4cccc5c4C(=O)N(C4CCC(=O)NC4=O)C5=O)CC3)nc21` (some centres unmarked) [I-494], the “CDK2 degradation 14 h: Average Dmax %” value is listed as “D (D (<25%))” and the DC50 is more than 1 µM.
On to `Cc1cc(S(=O)(=O)NCCOCCOCCOCCOCCCc2ccc3c(c2)n(C)c(=O)n3C2CCC(=O)NC2=O)ccc1Nc1ncc2ccc(=O)n(C3CCCC3)c2n1` (centres unmarked) [I-973], for which the “CDK2 degradation 14 h: Average Dmax %” value was “A (A (>75% o))” and the DC50 is less than 0.1 µM.
Take `Cc1cc(S(=O)(=O)C2CC(N3CCC4(CC3)CN(c3cccc5c3n(C)c(=O)n5C3CCC(=O)NC3=O)C4)C2)ccc1Nc1ncc2cc(Cl)c(=O)n(C3CCCC3)c2n1` (centres unmarked) [I-35]: the “CDK2 degradation 14 h: Average Dmax %” value is “B (B (>50% -75%))” and the half-maximal degradation concentration (DC50) was less than 0.1 µM.
For `Cc1cc(S(=O)(=O)NC(C)COC2CCC(CN3CCN(c4ccc5c(c4F)n(C)c(=O)n5C4CCC(=O)NC4=O)CC3)CC2)ccc1Nc1ncc(C(F)(F)F)c(N2CCC(C(C)(C)O)C2)n1` (centres unmarked) [I-857], the “CDK2 degradation 14 h: Average Dmax %” value is “A (A (>75% o))” and the DC50 is less than 0.1 µM.
Take `Cc1cc(S(=O)(=O)NC2CC(N3CCC(F)(CN4CCC(c5cccc6c5n(C)c(=O)n6C5CCC(=O)NC5=O)CC4)CC3)C2)ccc1Nc1ncc(C(F)(F)F)c(N2CCCC(C)(O)C2)n1` (centres unmarked) [I-699]: the “CDK2 degradation 14 h: Average Dmax %” value is listed as “A (A (>75% o))” and the 50% degradation concentration (DC50) was less than 0.1 µM.
For the molecule `Cc1cc(S(=O)(=O)NC2CC(N3CCN(CC4CCN(c5cccc6c5n(C)c(=O)n6C5CCC(=O)NC5=O)CC4)CC3)C2)ccc1Nc1ncc(C(F)(F)F)c(N2CCCC(C)(O)C2)n1` (centres unmarked) [I-663], the “CDK2 degradation 14 h: Average Dmax %” value is recorded as “A (A (>75% o))” and the DC50 was less than 0.1 µM.
For the molecule `Cc1cc(S(=O)(=O)C2CC3(CCN(CC4CCN(c5ccc6c(c5F)n(C)c(=O)n6C5CCC(=O)NC5=O)CC4)CC3)C2)ccc1Nc1ncc(C(F)(F)F)c(N2CCC(C(C)(C)O)C2)n1` (centres unmarked) [I-840], the “CDK2 degradation 14 h: Average Dmax %” value is “B (B (>50% -75%))” and the 50% degradation concentration (DC50) is less than 0.1 µM.
Turning to `Cc1cc(S(=O)(=O)NC2CCC(CN3CCN(c4ccc(C5CCC(=O)NC5=O)c(Cl)c4)CC3)CC2)ccc1Nc1ncc(C(F)(F)F)c(N2CCC[C@](C)(O)C2)n1` (stereo partly drawn) [I-745, N-[4-[[4-[3-chloro-4-(2,6-dioxo-3-piperidyl)phenyl]piperazin-1-yl]methyl]cyclohexyl]-4-[[4-[(3S)-3-hydroxy-3-methyl-1-piperidyl]-5-(trifluoromethyl)pyrimidin-2-yl]amino]-3-methyl-benzenesulfonamide], the DC50 is less than 0.1 µM and the Dmax was more than 75%.
For the molecule `Cc1cc(S(=O)(=O)N2CCC3(CCN(c4cccc5c4n(C)c(=O)n5C4CCC(=O)NC4=O)CC3)CC2)ccc1Nc1ncc2cc(Cl)c(=O)n(C(C)C)c2n1` (centres unmarked) [I-380], the “CDK2 degradation 14 h: Average Dmax %” value is given as “D (D (<25%))” and the DC50 is more than 1 µM.
As to `Cc1cc(S(=O)(=O)NC2CCC(CN3CCN(c4ccc(C5CCC(=O)NC5=O)c(C)c4F)CC3)CC2)ccc1Nc1ncc(C(F)(F)F)c(N2CCCC(C)(O)C2)n1` (centres unmarked) [I-812], the “CDK2 degradation 14 h: Average Dmax %” value was “A (A (>75% o))” and the DC50 was less than 0.1 µM.
Consider `Cc1cc(S(=O)(=O)C2CCN(CCN3CCN(c4cccc5c4n(C)c(=O)n5C4CCC(=O)NC4=O)CC3)CC2)ccc1Nc1ncc2cc(Cl)c(=O)n(C(C)C)c2n1` (centres unmarked) [I-7], for which the “CDK2 degradation 14 h: Average Dmax %” value is listed as “A (A (>75% o))” and the DC50 was less than 0.1 µM.
`COc1cc(N2CCN(CC3CCC(NS(=O)(=O)c4ccc(Nc5ncc(C(F)(F)F)c(N6CCCC(C)(O)C6)n5)c(C)c4)CC3)CC2)c(F)cc1NC1CCC(=O)NC1=O` (centres unmarked) [I-816]: the “CDK2 degradation 14 h: Average Dmax %” value was “A (A (>75% o))” and the half-maximal degradation concentration (DC50) was less than 0.1 µM.
As to `Cc1cc(S(=O)(=O)N2CCC(CN(C)C3CCN(c4cccc5c4n(C)c(=O)n5C4CCC(=O)NC4=O)CC3F)CC2)ccc1Nc1ncc2cc(Cl)c(=O)n(C3CCCC3)c2n1` (centres unmarked) [I-823], the “CDK2 degradation 14 h: Average Dmax %” value is recorded as “A (A (>75% o))” and the half-maximal degradation concentration (DC50) was less than 0.1 µM.
As to `Cc1cc(S(=O)(=O)NC2CCC(CN3CCN(c4ccc([C@@H]5CCC(=O)NC5=O)c(Cl)c4)CC3)CC2)ccc1Nc1ncc(C(F)(F)F)c(N2CCC[C@](C)(O)C2)n1` (single isomer, unassigned) [I-809], the DC50 is less than 0.1 µM and the Dmax was more than 75%.
Consider `Cc1cc(S(=O)(=O)NC2CC(N3CCN(CC4CCN(c5cccc(C6CCC(=O)NC6=O)c5)CC4)CC3)C2)ccc1Nc1ncc(C(F)(F)F)c(N2CCCC(C)(O)C2)n1` (centres unmarked) [I-718], for which the “CDK2 degradation 14 h: Average Dmax %” value is on record as “A (A (>75% o))” and the 50% degradation concentration (DC50) lay within 0.1 to 0.5 µM.
As to `Cc1cc(S(=N)(=O)C2CC3(CCN(CC4CCN(c5cccc6c5n(C)c(=O)n6C5CCC(=O)NC5=O)CC4)CC3)C2)ccc1Nc1ncc2cc(Cl)c(=O)n(C3CCCC3)c2n1` (centres unmarked) [I-93], the “CDK2 degradation 14 h: Average Dmax %” value is on record as “A (A (>75% o))” and the DC50 was less than 0.1 µM.
On the same counts, the results for `Cc1cc(S(=O)(=O)NC(C)COC2CCC(CN3CC(c4ccc5c(c4F)n(C)c(=O)n5C4CCC(=O)NC4=O)C3)CC2)ccc1Nc1ncc(C(F)(F)F)c(N2CCCC(C)(O)C2)n1` (centres unmarked) [I-848] are “A (A (>75% o))” and less than 0.1 µM.
As for `Cc1cc(S(=O)(=O)NC2CCC(CN3CCN(c4c(F)cc(C5CCC(=O)NC5=O)cc4Cl)CC3)CC2)ccc1Nc1ncc(C(F)(F)F)c(N2CCCC(C)(O)C2)n1` (centres unmarked) [I-941], the “CDK2 degradation 14 h: Average Dmax %” value is listed as “A (A (>75% o))” and the DC50 was less than 0.1 µM.
As to `C[C@]1(O)CCC[C@H]1n1c(=O)c(C(F)F)cc2cnc(NC3CCN(C(=O)COCCOCCNc4cccc5c4C(=O)N(C4CCC(=O)NC4=O)C5=O)CC3)nc21` (some centres unmarked) [I-491], the “CDK2 degradation 14 h: Average Dmax %” value was “D (D (<25%))” and the 50% degradation concentration (DC50) is more than 1 µM.
`Cc1cc(S(=O)(=O)NCCO[C@H]2CC[C@H](CN3CCC(c4ccc5c(c4)n(C)c(=O)n5C4CCC(=O)NC4=O)CC3)CC2)ccc1Nc1ncc2cc(C(F)F)c(=O)n(C(C)C)c2n1` (some centres unmarked) [I-428]: the “CDK2 degradation 14 h: Average Dmax %” value was “A (A (>75% o))” and the DC50 is less than 0.1 µM.
